viability, Activity and IC50 data for 14 compounds are collected here from ChEMBL document CHEMBL3992502, “Structural optimization of diphenylpyrimidine derivatives (DPPYs) as potent Bruton's tyrosine kinase (BTK) inhibitors with improved activity toward B leukemia cell lines” (Eur J Med Chem, 2017).

Structures are written as SMILES.

Series [1] relates to Ramos. Kind of series: Induction of apoptosis in human Ramos cells assessed as viable cells at 10 uM after 48 hrs by Annexin V-FITC/propidium iodide staining based flow cytometry (reference value: 94.3%). Conditions: read-out: Activity. The class given is functional.
In series [2] the test system is Ramos. Kind of series: Induction of apoptosis in human Ramos cells assessed as early apoptotic cells at 10 uM after 48 hrs by Annexin V-FITC/propidium iodide staining based flow cytometry (reference value: 1.7%). The series is classed as functional.
Series [3] deals with Ramos. The series is described as follows: Antiproliferative activity against human Ramos cells after 48 hrs by CCK-8 assay. The class given is functional, cell-based. For orientation: Formazan colour is commonly taken as a measure of viable cells.
Series [4] has as its system Ramos. Kind of series: Cell cycle arrest in human Ramos cells assessed as accumulation at G0/G1 phase at 10 uM after 48 hrs by propidium iodide staining based flow cytometry (reference value: 56.19%). The series is classed as functional.
Series [5] relates to Ramos. The series is described as follows: Cell cycle arrest in human Ramos cells assessed as accumulation at G2/M phase at 10 uM after 48 hrs by propidium iodide staining based flow cytometry (reference value: 1.58%). The class given is functional. (In general: A flow cytometer gives signals particle by particle.)
Series [6] relates to Ramos. The series is described as follows: Induction of apoptosis in human Ramos cells assessed as necrotic cells at 10 uM after 48 hrs by Annexin V-FITC/propidium iodide staining based flow cytometry (reference value: 1%). The series is classed as functional.
Series [7] concerns Ramos. The series is described as follows: Cell cycle arrest in human Ramos cells assessed as accumulation at S phase at 10 uM after 48 hrs by propidium iodide staining based flow cytometry (reference value: 42.23%). The class given is functional.
The target in series [8] is T1, Tyrosine-protein kinase BTK (Homo sapiens, UniProt Q06187). Kind of series: Irreversible inhibition of N-terminal His-tagged full length human recombinant BTK expressed in baculovirus infected Sf9 insect cells using Poly (4:1 Glu, Tyr) peptide substrate assessed as luminescence of compound linked enzyme at 5000 nmol/L incubated for 60 mins by ADP-Glo kinase assay (reference value: 9976).
T1 sequence (Q06187 whole entry): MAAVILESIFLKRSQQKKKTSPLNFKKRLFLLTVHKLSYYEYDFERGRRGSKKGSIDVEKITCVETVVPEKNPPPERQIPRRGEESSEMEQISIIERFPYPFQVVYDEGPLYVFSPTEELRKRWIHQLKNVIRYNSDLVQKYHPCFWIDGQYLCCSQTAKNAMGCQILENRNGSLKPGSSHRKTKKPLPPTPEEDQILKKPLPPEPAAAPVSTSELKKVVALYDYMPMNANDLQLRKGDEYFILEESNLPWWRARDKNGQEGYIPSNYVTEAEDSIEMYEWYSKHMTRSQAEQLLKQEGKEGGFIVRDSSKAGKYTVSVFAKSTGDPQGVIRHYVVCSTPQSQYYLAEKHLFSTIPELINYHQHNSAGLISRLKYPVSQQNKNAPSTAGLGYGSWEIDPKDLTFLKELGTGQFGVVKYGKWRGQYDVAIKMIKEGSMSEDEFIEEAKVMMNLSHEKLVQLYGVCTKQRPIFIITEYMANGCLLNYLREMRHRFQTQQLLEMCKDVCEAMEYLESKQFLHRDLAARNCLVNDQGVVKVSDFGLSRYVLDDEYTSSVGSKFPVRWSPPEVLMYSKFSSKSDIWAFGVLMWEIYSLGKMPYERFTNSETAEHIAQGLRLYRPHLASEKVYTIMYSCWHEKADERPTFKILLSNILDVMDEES

Series [9] deals with Ramos. Kind of series: Induction of apoptosis in human Ramos cells assessed as late apoptotic cells at 10 uM after 48 hrs by Annexin V-FITC/propidium iodide staining based flow cytometry (reference value: 3%). The class given is functional.
The subject of series [10] is Ramos. Kind of series: Induction of apoptosis in human Ramos cells assessed as necrotic cells at 5 uM after 48 hrs by Annexin V-FITC/propidium iodide staining based flow cytometry (reference value: 1%). The series is classed as functional.
The subject of series [11] is Ramos. The series is described as follows: Induction of apoptosis in human Ramos cells assessed as viable cells at 20 uM after 48 hrs by Annexin V-FITC/propidium iodide staining based flow cytometry (reference value: 94.3%). The class given is functional. Particulars: read-out: Activity.
Series [12] concerns Ramos. Kind of series: Induction of apoptosis in human Ramos cells assessed as late apoptotic cells at 5 uM after 48 hrs by Annexin V-FITC/propidium iodide staining based flow cytometry (reference value: 3%). The class given is functional.
Series [13] relates to Ramos. The series is described as follows: Cell cycle arrest in human Ramos cells assessed as accumulation at G2/M phase at 5 uM after 48 hrs by propidium iodide staining based flow cytometry (reference value: 1.58%). The series is classed as functional.
Another series concerns Raji. Kind of series: Antiproliferative activity against human Raji cells after 48 hrs by CCK-8 assay.
Series [14] has as its system Ramos. The series is described as follows: Induction of apoptosis in human Ramos cells assessed as late apoptotic cells at 20 uM after 48 hrs by Annexin V-FITC/propidium iodide staining based flow cytometry (reference value: 3%). The class given is functional.
In series [15] the test system is Ramos. Kind of series: Induction of apoptosis in human Ramos cells assessed as early apoptotic cells at 20 uM after 48 hrs by Annexin V-FITC/propidium iodide staining based flow cytometry (reference value: 1.7%). The series is classed as functional.
Series [16] relates to Ramos. Kind of series: Induction of apoptosis in human Ramos cells assessed as viable cells at 5 uM after 48 hrs by Annexin V-FITC/propidium iodide staining based flow cytometry (reference value: 94.3%). The series is classed as functional. Conditions: read-out: Activity.
For series [17], the system named is Ramos. Kind of series: Induction of apoptosis in human Ramos cells assessed as early apoptotic cells at 5 uM after 48 hrs by Annexin V-FITC/propidium iodide staining based flow cytometry (reference value: 1.7%). The class given is functional.
Series [18] deals with Ramos. The series is described as follows: Cell cycle arrest in human Ramos cells assessed as accumulation at S phase at 20 uM after 48 hrs by propidium iodide staining based flow cytometry (reference value: 42.23%). The series is classed as functional.
Series [19] relates to Ramos. Kind of series: Cell cycle arrest in human Ramos cells assessed as accumulation at G2/M phase at 20 uM after 48 hrs by propidium iodide staining based flow cytometry (reference value: 1.58%). The class given is functional.
Series [20] deals with T1, Tyrosine-protein kinase BTK. Kind of series: Inhibition of N-terminal His-tagged full length human recombinant BTK expressed in baculovirus infected Sf9 insect cells using Poly (4:1 Glu, Tyr) peptide substrate incubated for 60 mins by ADP-Glo luminescence assay. A general note: ADP-Glo first removes unused ATP, then detects ADP through luciferase.
Series [21] has as its system Ramos. Kind of series: Cell cycle arrest in human Ramos cells assessed as accumulation at S phase at 5 uM after 48 hrs by propidium iodide staining based flow cytometry (reference value: 42.23%). The series is classed as functional.
The subject of series [22] is Ramos. Kind of series: Induction of apoptosis in human Ramos cells assessed as necrotic cells at 20 uM after 48 hrs by Annexin V-FITC/propidium iodide staining based flow cytometry (reference value: 1%). The series is classed as functional.
Series [23] relates to Ramos. The series is described as follows: Cell cycle arrest in human Ramos cells assessed as accumulation at G0/G1 phase at 5 uM after 48 hrs by propidium iodide staining based flow cytometry (reference value: 56.19%). The series is classed as functional.
The next series relates to PBMC. The series is described as follows: Cytotoxicity against human PBMC assessed as change in cell morphology at <20 uM after 24 hrs by phase contrast microscopy. The class given is cell-based.
The test system of series [24] is Ramos. The series is described as follows: Cell cycle arrest in human Ramos cells assessed as accumulation at G0/G1 phase at 20 uM after 48 hrs by propidium iodide staining based flow cytometry (reference value: 56.19%). The series is classed as functional.

As to `C=CC(=O)N1CCC[C@@H](n2nc(-c3ccc(Oc4ccccc4)cc3)c3c(N)ncnc32)C1` [IBRUTINIB], in the series with Ramos [1], the viability at 10 µM worked out at 52%. Further, the Activity in the series with Ramos [2] amounted to 37%; in the series with Ramos [4], 46.35%; with Ramos [5], 0.15%; in the series with Ramos [6], 0.1%; in the series on Ramos [7], 53.5%. Besides, the IC50 in the series on Ramos [3] was 12.6 µM.
Regarding `C=CC(=O)Nc1cccc(Nc2nc(Nc3ccc(OCC4CCCO4)cc3)ncc2Cl)c1` (stereo not given), the Activity is 383 RLU in series [8]; 34.2% in the series on Ramos [9]; 2.2% with Ramos [10]; 12.6% in the series on Ramos [2]; 27% with Ramos [12]; 0% in the series on Ramos [13]. The Activity in the series on Ramos [14] was found to be 57.2%; in the series on Ramos [4], 63%; in the series with Ramos [15], 26.4%; in the series with Ramos [17] it was 11%; with Ramos [5], 0%; in the series with Ramos [18], 28.39%. Also, the Activity in the series on Ramos [19] is listed as 0.86%; in the series with Ramos [6], 1.2%; in the series on Ramos [21], 46.82%; with Ramos [22] it was 0.1%; in the series on Ramos [23] it was 53.18%; in the series on PBMC, “Non-Toxic”. The Activity with Ramos [7] is 37%; in the series with Ramos [24] it was 70.75%. Moreover, the viability at 10 µM in the series with Ramos [1] is 50%. Besides, the viability at 20 µM in the series on Ramos [11] was determined as 16.2%. Also, the half-maximal inhibitory concentration (IC50) in the series on Ramos [3] is 10.5 µM; in the series with Raji, 19.1 µM; in [20], 0.0121 µM. Moreover, the viability at 5 µM in the series on Ramos [16] is 50.1%.
In the case of `C=CC(=O)Nc1cccc(Nc2nc(Nc3ccc(OCC(=O)OCC4CCCO4)cc3)ncc2Cl)c1` (stereo not given), the 50% inhibitory concentration (IC50) is above 40 µM with Ramos [3], 9.4 µM in the series with Raji and 0.00023 µM in series [20].
As for `C=CC(=O)Nc1cccc(Nc2nc(Nc3ccc(OCCOC)cc3)ncc2F)c1` [SPEBRUTINIB], the Activity is on record as 20.4% in the series on Ramos [9]; 21.2% with Ramos [2]; 31.02% with Ramos [4]; 20.91% in the series on Ramos [5]; 4.3% with Ramos [6]; 47.9% with Ramos [7]. Moreover, the viability at 10 µM in the series on Ramos [1] was determined as 54%. Moreover, the figures for the IC50 with Ramos [3] and in the series with Raji were 20.9 µM and 29.4 µM, respectively.
`C=CC(=O)Nc1cccc(Nc2nc(Nc3ccc(N(CCOC)CCOC)cc3)ncc2Cl)c1`: the IC50 with Ramos [3] stood at 13 µM; in the series with Raji, 30.5 µM; in series [20], 0.00494 µM.
In the case of `C=CC(=O)Nc1cccc(Nc2nc(Nc3ccc(OCC(=O)N(CCOC)CCOC)cc3)ncc2Cl)c1`, the IC50 in the series with Ramos [3] was found to be 18.1 µM; with Raji it was 20.1 µM; in [20], 0.00283 µM.
Regarding `C=CC(=O)Nc1cccc(Nc2nc(Nc3ccc(NC(=O)CN(CCOC)CCOC)c(C)c3)ncc2Cl)c1`, the 50% inhibitory concentration (IC50) with Ramos [3] was 19.6 µM; in the series on Raji it was 35.6 µM; in series [20] it was 0.02 µM.
On the same counts, the results for `C=CC(=O)Nc1cccc(Nc2nc(Nc3ccc(NC(=O)CN(CCOC)CCOC)cc3)ncc2F)c1` are 35.6 µM, 36.9 µM and 0.0913 µM.
For the compound `C=CC(=O)Nc1cccc(Nc2nc(Nc3ccc(OCC(=O)N(CCOC)CCOC)cc3)ncc2F)c1`, the concentration for half-maximal inhibition (IC50) was above 40 µM in the series on Ramos [3], 36 µM with Raji and 0.0272 µM in [20].
Taken in the same sequence, the figures for `C=CC(=O)Nc1cccc(Nc2nc(Nc3ccc(N(CCOC)CCOC)cc3)ncc2F)c1` were 18.1 µM, 23.8 µM and 0.00712 µM.
As to `C=CC(=O)Nc1cccc(Nc2nc(Nc3ccc(NC(=O)CN(CCOC)CCOC)c(OC)c3)ncc2Cl)c1`, the IC50 in the series with Ramos [3] is 11 µM; in the series on Raji it was 20.9 µM; in series [20], above 0.1 µM.
Taken in the same sequence, the figures for `C=CC(=O)Nc1cccc(Nc2nc(Nc3ccc(OCC(=O)N(CCOC)CCOC)c(Cl)c3)ncc2Cl)c1` were 16.9 µM, 19.3 µM and above 0.1 µM.
Consider `C=CC(=O)Nc1cccc(Nc2nc(Nc3ccc(OCC4CCCO4)cc3)ncc2F)c1` (stereo not given), for which the IC50 with Ramos [3] came to 22.3 µM; with Raji it was 38.6 µM; in [20], 0.0224 µM.
For the compound `C=CC(=O)Nc1cccc(Nc2nc(Nc3ccc(NC(=O)CN(CCOC)CCOC)cc3)ncc2Cl)c1`, the IC50 with Ramos [3] worked out at 14.8 µM; in the series with Raji, 19.9 µM; in series [20] it was 0.0226 µM.

The IC50 is the concentration that gives 50% inhibition.
